{"source": "paper PMC11758220", "about": "“Identification of a Privileged Scaffold for Inhibition of Sterol Transport Proteins through the Synthesis and Ring Distortion of Diverse, Pseudo-Natural Products” (ACS Central Science, 2025)", "target": "T1, STARD1 (Homo sapiens, UniProt P49675)", "T1 construct": "STARD1(66-284); made in house; host or cells: E. coli BL21(DE3)", "T1 sequence (P49675 66-284)": "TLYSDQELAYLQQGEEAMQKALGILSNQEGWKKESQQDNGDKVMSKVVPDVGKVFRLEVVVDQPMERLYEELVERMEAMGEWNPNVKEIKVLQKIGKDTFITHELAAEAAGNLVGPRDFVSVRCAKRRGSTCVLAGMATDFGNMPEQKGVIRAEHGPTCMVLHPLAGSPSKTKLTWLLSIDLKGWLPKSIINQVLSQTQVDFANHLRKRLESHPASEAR", "assay": "Effect on intrinsic protein fluorescence, STARD1", "settings": "protein 1 µM, excitation 280 nm", "experimental": "Effect of spirooxepinoindoles on intrinsic protein fluorescence\nFigure S12: Spirooxepinoindoles 21a and 15f affect intrinsic protein fluorescence in dose-dependent fashion:\nRespective proteins (1 µM) were incubated with the compounds at different doses. Proteins were excited at 280 ± 10 nm and fluorescence spectra were measured from 315 ± 20 nm to 600 ± 20 nm with a step size of 2 nm. A) STARD1 and 21a. B) ORP1 and 21a. C) ORP2 and 21a. D) ORP2 and 15f.\n(1 picture or pasted object on this page, not shown here)\nSuperdex 75 pg (Cytiva) using an ÄKTA Explorer (Cytiva) in buffer containing 10 mM Tris -HCl, pH 8, 150 mM NaCl, 5 % glycerol and 2 mM DTT.\nFluorescence intensity and polarisation\nFluorescence intensity and polarisation (FP) experiments were performed in a buffer containing 20 mM HEPES pH 7.5, 300 mM NaCl, 0.01 %v/v Tween-20, 0.5% glycerol and 2 mM DTT in a final volume of 30 µl in black, flat-bottom, non-binding 384-well plates (Corning). All compounds were dispensed using the LabCyte Echo 550 Liquid handler. […] For competition experiments, 20 nM 22-NBD-cholesterol or 80 nM 25-NBD-cholesterol was mixed with protein and incubated with desired concentrations of screening compounds (Table S4) The fluorescence polarisation signal was measured using a Spark Cyto multimode microplate reader (Tecan) with filters set at 485 ± 20 nm for excitation and at 535 ± 20 nm for emission. […]"}
{"smiles": "C[C@]12CC[C@@H]3C[C@H]1CC[C@@]21C(=Nc2ccc(-c4ccccc4)cc21)O3", "note": "[Compound 21a]", "values": [{"measurement": "Quenching of intrinsic fluorescence of STARD1", "value": "dose-dependently quenches"}]}
